Measurements published in US20130236553A1, “Compositions and Methods for the Delivery of Therapeutics” (Board of Regents of the University of Nebraska, priority 2010, published 2013).

Tests used:
[1] = Plasma concentration after low dose SC injection of nanoparticle or free drug; assay type: in vivo, Mice; settings: 10 mg/kg SC; for concentration at 0.25 hr / concentration at 1 hr / concentration at 3 hr / concentration at 6 hr / concentration at 10 hr / concentration at 24 hr / concentration at 48 hr / concentration at 96 hr / concentration at 168 hr / concentration at 336 hr: mouse, plasma, subcutaneous
Experimental: Mice were also administered nanoparticles or free drug at only 10 mg/kg by SC injection.

[2] = cited from earlier work
[3] = cited from earlier work; remark: listed apart in the source
[4] = system: a variety of HIV strains and host cell types; settings: read-out: EC50 levels for anti-HIV activity; cited from earlier work
HIVADA = assay: Antiretroviral activities of RTV (p24 staining, RT activity) in HIVADA infected MDM; assay type: cell-based, HIV-1; settings: 12 hours treatment, HIV challenge day 1, read 10 days after infection
Experimental: Drug-treated MDMs were infected with HIVADA at a multiplicity of infection of 0.01 infectious viral particles/cell (Gendelman et al. (1988) J. Exp. Med., 167:1428-1441) on day 1 after RTV-NP treatment. Following viral infection, cells were cultured for 10 days with half media exchanges every other day. Media samples were collected 10 days after infection for measurement of progeny virion production as assayed by reverse transcriptase (RT) activity (Kalter et al. (1991) J. Immunol., 146:3396-3404). Parallel analyses for expression of HIV p24 antigen in infected cells were performed by immunostaining using p24 mouse monoclonal Ab (Dako [CA, USA]) on the same day as media sampling.
In a 96-well plate, media samples (10 μl) were mixed with 10 μl of a solution containing 100 mM Tris-HCl (pH 7.9), 300 mM KCl, 10 mM dithiothreitol, 0.1% nonyl phenoxylpolyethoxylethanol-40 (NP-40) and water. […] Following incubation, 50 μl of cold 10% TCA was added to each well; the wells were harvested onto glass fiber filters, and the filters were assessed for tritiated thymidine triphosphate incorporation by β-scintillation spectroscopy using a TopCount NX™ (PerkinElmer Inc. [MA, USA]) (Kalter et al. (1991) J. Immunol., 146:3396-3404). […]

COC(=O)N[C@H](C(=O)N[C@@H](Cc1ccccc1)[C@@H](O)CN(Cc1ccc(-c2ccccn2)cc1)NC(=O)[C@@H](NC(=O)OC)C(C)(C)C)C(C)(C)C [ATV, atazanavir]
concentration at 0.25 hr [1]: 1150 ng/mL | concentration at 1 hr [1]: 804 ng/mL | concentration at 3 hr [1]: 2060 ng/mL | concentration at 6 hr [1]: 2100 ng/mL | concentration at 10 hr [1]: 639 ng/mL | concentration at 24 hr [1]: 9.85 ng/mL | concentration at 48 hr [1]: 4.38 ng/mL | concentration at 96 hr [1]: 4.3 ng/mL | concentration at 168 hr [1]: 1.74 ng/mL | concentration at 336 hr ([1]; 336 hr): 0 ng/mL | solubility of free-base drug [2]: 4000 to 5000 µg/mL | therapeutic human plasma levels [3]: 0.3 to 2.2 µg/mL | minimum human therapeutic serum level ([3]; human serum): 150 ng/mL | EC50 [4]: 2 to 5 nM

O=C1Nc2ccc(Cl)cc2[C@@](C#CC2CC2)(C(F)(F)F)O1 [EFV, efavirenz]
Plasma concentration, 336 hr ([1]; 336 hr): <LLOQ | concentration at 0.25 hr [1]: 301 ng/mL | concentration at 1 hr [1]: 124 ng/mL | concentration at 3 hr [1]: 155 ng/mL | concentration at 6 hr [1]: 213 ng/mL | concentration at 10 hr [1]: 40 ng/mL | concentration at 24 hr [1]: 7.1 ng/mL | concentration at 48 hr [1]: 2.17 ng/mL | concentration at 96 hr [1]: 2.99 ng/mL | concentration at 168 hr [1]: 2.57 ng/mL | solubility of free-base drug [2]: 9 µg/mL | therapeutic human plasma levels [3]: 1.8 to 4.1 µg/mL | EC50 [4]: 1.7 to 25 nM

CC(C)(C)NC(=O)[C@@H]1CN(Cc2cccnc2)CCN1C[C@@H](O)C[C@@H](Cc1ccccc1)C(=O)N[C@H]1c2ccccc2C[C@H]1O [IDV, indinavir]
EC50 [4]: 5 to 29 nM

CC(C)c1nc(CN(C)C(=O)N[C@H](C(=O)N[C@@H](Cc2ccccc2)C[C@H](O)[C@H](Cc2ccccc2)NC(=O)OCc2cncs2)C(C)C)cs1 [RTV, ritonavir]
concentration at 0.25 hr [1]: 1080 ng/mL | concentration at 1 hr [1]: 492 ng/mL | concentration at 3 hr [1]: 710 ng/mL | concentration at 6 hr [1]: 551 ng/mL | concentration at 10 hr [1]: 69.1 ng/mL | concentration at 24 hr [1]: 5.91 ng/mL | concentration at 48 hr [1]: 2.36 ng/mL | concentration at 96 hr [1]: 4.94 ng/mL | concentration at 168 hr [1]: 2.21 ng/mL | concentration at 336 hr ([1]; 336 hr): 0 ng/mL | protection against HIV infection (p24 staining, multinucleated giant cells) (HIVADA): no protection against infection | therapeutic human plasma levels [3]: 3.5 to 9.6 µg/mL | EC50 [4]: 35 to 200 nM
